Converted amounts (≈) assume the structure as drawn.
Key:
[1] = background statement; cited from earlier work
[2] = Skin permeation, Franz diffusion cell; details: 3 hours
Text: To collect the data illustrated in this Example, fresh pig skin is placed on a Franz diffusion cell and the formulation of interest is applied to the outer skin surface. After three hours the cell is dismantled and the exposed circular area excised. […] The amount of drug in each section is then quantitated and expressed at mass of drug/gram of tissue.
For cannabinoid aqueous gel preparation for skin permeation study and therapeutic efficacy studies, a water-based gel comprised of water, phenoxyethanol, ethylhexyl glycerin, acrylates/C10-30 alkyl acrylate crosspolymer, sodium hydroxide and allantoin, was used as the gel base. Gel base and diblock copolymer were weighed, mixed together and heated using a microwave for 4 seconds. A homogenous gel containing diblock copolymer was achieved via levigation of the mixture. Gel base without diblock copolymer was weighed and used for the control formula. Commercial cannabinoid-containing extracts containing known quantities of cannabinoid were weighed and dissolved in a pre-weighed amount of cacao butter over 45 °C heat. The cacao butter cannabinoid mixture was then weighed and incorporated into the gel base, with or without diblock copolymer, via levigation to produce the final gel samples. Cannabinoid content of the final gel samples was analyzed using HPLC. […] Gel samples were stored in air-tight containers at 4 °C until the time of use.
For carboxymethyl cellulose (CMC) gel and Glaxal® base preparation for skin permeation study of cannabidiol (CBD), curcumin, capsaicin and finasteride, CMC gel was made using medium viscosity CMC as a 2% w/v aqueous solution following overnight stirring. […] For CMC preparations containing DBC, DBC was weighed into a glass vial and a small volume of the drug of interest in acetonitrile:methanol (50:50) was added to dissolve all. The solution was then dried for 2 hours in a warm oven (50 °C). In all cases the ratio of DBC:drug was 95:5. A known weight of CMC gel was then added to the warmed vial containing the dried DBC/drug mixture and vortexed to disperse and dissolve all drug. Glaxal® base was used as received. Glaxal® base containing drug was prepared by first weighing drug and dissolving in a known volume of ethanol or methanol. The ethanol or methanol drug solution was then added to a weighed amount of Glaxal® base followed by levigation of the mixture. For CBD, capsaicin, docetaxel and finasteride, it was not possible to prepare CMC gels without the use of DBC, due to drug insolubility. Therefore Glaxal® base preparations containing these drugs were employed as DBC-free comparison groups (control) for skin permeation studies.
For carboxymethyl cellulose (CMC) gel and Glaxal® base preparation for skin permeation study of docetaxel, 2% CMC gel was prepared as described above. Docetaxel (DTX) 6 mg was weighed into 190 μL of acetonitrile and 10 μL of 3H radiolabeled DTX was added. Then 66 μL (i.e., 2 mg of drug) was pipetted into a vial with 40 mg of DBC to dissolve all. The contents were dried down and 1 mL of warm 2% CMC gel was added with vortexing to dissolve all DBC and drug as a micellar solution. For Glaxal® paste 66 μL of the drug solution was dried down to approximately 20 μL and 1 gram of Glaxal® base added to disperse the drug.
Fresh pig skin was obtained from a butcher and defatted to 5 mm thickness and shaved. 2 cm^2 pieces were cut with scissors and placed on Franz diffusion cells filled with PBS and clamped. 100 mg of each formulation was weighed and placed on top of the tissue and capped. The cells were placed in a 37 °C humid incubator for three hours and then dismantled. The tissue was washed three times with PBS and the centre drug-loaded circle of tissue was cut out with scissors and snap frozen. Tissues were sectioned by cryosectioning into 50 μm cuts pooled into groups of five.

[3] = Preparation of homogenous aqueous carboxymethyl cellulose (CMC) gel; format: physicochemical
Text: This Example illustrates that DBC3333 allowed for CBD, CBN, finasteride and docetaxel to be prepared within aqueous carboxymethyl cellulose (CMC) gels for topical use. […]

[4] = Aqueous solubility with/without diblock copolymer (visual, film rehydration)
Procedure: In these studies the cannabinoid and diblock copolymer are dissolved in ethanol and dried to a film. Warm water is added and solubility is assessed by an optically clear solution or via HPLC or UV/Vis spectrophotometry.
Specific methodologies for aqueous solubility studies were as follows. Drug solutions having a concentration of 10 mg/mL were prepared by weighing drug and dissolving in an appropriate amount of ethanol in glass vials. Control drug samples (no diblock copolymer) were prepared by measuring 1 mL of room temperature distilled water in a glass vial and adding an appropriate volume of 10 mg/mL ethanol drug solution, followed by gentle mixing.
Drug samples with diblock copolymer (60:40 MePEG: PLLA, MW 3333 Da “DBC3333”; 57:43 MePEG:PCL, MW 1320 Da “[COMPOUND LEFT OUT]”; 40:60 MePEG:PCL, MW 1890 Da “PCL10”; 30:70 MePEG:PCL, MW 12000 Da “PCL61”) were prepared by weighing diblock copolymer into glass vials then adding 800 microlitres ethanol followed by an appropriate volume of 10 mg/mL ethanol drug solution. The diblock copolymer was dissolved in the ethanol solution via gentle mixing and the solvent was then evaporated via warm oven heating at approximately 50 °C. Once completely dry, 1 ml distilled water was added to the vials followed by gentle mixing. All vials were capped and left at room temperature for 12 hours, at which time the vials were photographed for evidence of precipitation.

[5] = Limit of aqueous solubility with/without PCL25 (HPLC or UV/VIS); format: physicochemical; details: water
Procedure: Aqueous solubility studies involving diblock copolymer PCL25 (63:37 MePEG:PCL MW 7900 Da) were carried out as follows. 1 mg of drug (either paclitaxel, capsaicin or curcumin) was added to glass vials, designated as either “control” or “diblock copolymer”. Diblock copolymer was omitted from control vials and 100 mg PCL25 was added to diblock copolymer vials. The contents of all vials were then dissolved in 300 microlitres of acetonitrile. The contents were dried at 60 °C for two hours and then 1 mL of warm water (40 °C) was added with vortexing for five minutes. To determine the limit of drug solubility, the contents of each vial were then placed in a microcentrifuge tube and centrifuged at 14000×g for 3 minutes to sediment any undissolved solids. The supernatant was diluted 50% in acetonitrile and the drug was quantitated by HPLC for paclitaxel and capsaicin or by UV/VIS spectrometry (420 nm) for curcumin after 100 fold dilution in acetonitrile for this drug. HPLC conditions were detection at 228 nm for both drugs and a mobile phase of 60:40 (paclitaxel) or 50:50 (capsaicin) acetonitrile:water flowing at 1 mL/min. Calibration standard for all drugs were run in acetonitrile.

[6] = Curcumin release from PVA film; format: physicochemical; details: for Curcumin released from PVA film: by 2 hours
Procedure: The 88% hydrolyzed version of PVA was used with a molecular weight of between 100000 and 150000 daltons. PVA was dissolved in water at 10% w/v by heating to 90 °C for one hour and then cooled. Separately, 40 mg of diblock copolymer DBC3333 was weighed into a glass vial and 100 μL of curcumin solution (10 mg/mL in ethanol) was added to 2 mL of the 10% PVA solution with mixing to give the non diblock casting solutions. Alternatively, 100 μL of the curcumin solution was added to 40 mg of diblock copolymer to dissolve it and then this was mixed with 2 mL of PVA solution. These give PVA films containing 20% diblock with approximately 0.5% curcumin (1 mg curcumin per film). The films were cast in small petri dishes and air dried at 37 °C for 4 hours.
This observational solubilization experiment added 2 mL of water to the film at t=0 and then at 5, 10, 25 mins the liquid was removed into a test tube for observation.
A second set of the same films were prepared and used for a drug release experiment whereby 10 mL of PBS (10 mM pH 7.4) was added to the films and at specified time points, 100 μL of solution was collected and added to 400 μL of water. The absorbance of these solutions was then measured at 420 nm by uv/vis absorbance.

osteoarthritis = assay: Therapeutic efficacy case reports, osteoarthritis (VAS pain); format: in vivo, human
Procedure: (§1) In all cases, therapeutic efficacy studies were carried out with volunteer participants under the supervision of a healthcare practitioner. In all cases, informed consent was obtained. Participants were blinded to the DBC content of the gel samples provided. Participants were offered samples of control cannabinoid gel (no DBC) and asked to apply to the affected area twice daily and as needed for one week. Participants were told to maintain adherence to any prescribed medications while using the cannabinoid gel. Participants were contacted immediately after the one week treatment period for assessment. Following a washout period ranging from 4 to 12 weeks, participants were offered samples of DBC cannabinoid gel and asked to apply in the same manner, twice daily and as needed for one week, while maintaining adherence to any prescribed medications. Participants were contacted immediately after the one week treatment period for assessment. Efficacy was assessed using average daily 10-point visual analogue scale (VAS) pain score prior to beginning treatment and immediately after treatment. Participants were also asked to report all adverse effects experienced, if any, such as skin irritation, skin rash, localized or diffuse discomfort or pain, dizziness, fatigue, impaired concentration, feelings of euphoria or dysphoria, or other psychotropic effects.

rheumatoid arthritis = assay: Therapeutic efficacy case report, rheumatoid arthritis (VAS pain); format: in vivo, human
Procedure: as §1

[7] = topical, with DBC3333 vs formulation without
[8] = control, no diblock copolymer, drug 300 μg/mL
[9] = control, no diblock copolymer, drug 600 μg/mL
[10] = control, no diblock copolymer, drug 1000 μg/mL
[11] = diblock 0 mg/ml, drug 0.5 mg/ml
[12] = diblock (name withheld) 50 mg/ml, drug 1 mg/ml
[13] = diblock (name withheld) 50 mg/ml, drug 2 mg/ml
[14] = diblock (name withheld) 50 mg/ml, drug 3 mg/ml
[15] = diblock (name withheld) 50 mg/ml, drug 4 mg/ml
[16] = with DBC3333 50 mg/mL, drug 300 μg/mL
[17] = with DBC3333 50 mg/mL, drug 600 μg/mL
[18] = with DBC3333 50 mg/mL, drug 1000 μg/mL
[19] = with DBC3333 50 mg/mL, drug 2000 μg/mL
[20] = with DBC3333 50 mg/mL, drug 3000 μg/mL
[21] = with diblock copolymer PCL25 100 mg/mL
[22] = control, no diblock copolymer, drug 1 μg/mL
[23] = control, no diblock copolymer, drug 10 μg/mL
[24] = control, no diblock copolymer, drug 100 μg/mL
[25] = control, no diblock copolymer, drug 250 μg/mL
[26] = control, no diblock copolymer, drug 500 μg/mL
[27] = with DBC3333 20 mg/mL, drug 250 μg/mL
[28] = with DBC3333 20 mg/mL, drug 500 μg/mL
[29] = with DBC3333 20 mg/mL, drug 1000 μg/mL
[30] = with DBC3333 20 mg/mL, drug 2000 μg/mL
[31] = with DBC3333 20 mg/mL, drug 3000 μg/mL

CCCCCc1cc(O)c2c(c1)OC(C)(CCC=C(C)C)C=C2 (centres unmarked) [CBC, cannabichromene]
Water solubility [1]: ~1 µg/mL

C=C(C)[C@@H]1CCC(C)=C[C@H]1c1c(O)cc(CCCCC)cc1O [CBD, cannabidiol]
Water solubility [1]: ~1 µg/mL | Skin permeation ([2]; CMC gel with diblock copolymer (name withheld) vs identical CBD content in Glaxal base): enhanced skin permeation | Skin permeation [2, 7]: enhanced skin permeation | Preparation of homogenous CMC gel ([3]; with DBC3333): allowed | Preparation of homogenous CMC gel ([3]; with diblock copolymer (name withheld)): allowed | Preparation of homogenous CMC gel ([3]; without diblock copolymer): not possible to prepare homogenous CMC gel preparations | Aqueous solubility [4, 8]: Insol. | Aqueous solubility [4, 9]: Insol. | Aqueous solubility [4, 10]: Insol. | Solubility [4, 11]: Insol. | Solubility ([4]; diblock 0 mg/ml, drug 1 mg/ml): Insol. | Solubility [4, 12]: soluble | Solubility [4, 13]: soluble | Solubility [4, 14]: Partially | Solubility [4, 15]: Insol. | Aqueous solubility [4, 16]: Soluble | Aqueous solubility [4, 17]: Soluble | Aqueous solubility [4, 18]: Soluble | Aqueous solubility [4, 19]: Partially | Aqueous solubility [4, 20]: Insol.

CCCCCc1cc(O)c(C/C=C(\C)CCC=C(C)C)c(O)c1 [CBG, cannabigerol]
Water solubility [1]: ~1 µg/mL | Aqueous solubility [4, 8]: Insol. | Aqueous solubility [4, 16]: Soluble | Aqueous solubility [4, 17]: Soluble | Aqueous solubility [4, 18]: Soluble | Aqueous solubility [4, 19]: Partially | Aqueous solubility [4, 20]: Insol.

CCCCCc1cc(O)c2c(c1)OC(C)(C)c1ccc(C)cc1-2 [CBN, cannabinol]
Water solubility [1]: ~1 µg/mL | Skin permeation [2, 7]: enhanced skin permeation | Preparation of homogenous CMC gel ([3]; with DBC3333): allowed | Preparation of homogenous CMC gel ([3]; without diblock copolymer): not possible to prepare homogenous CMC gel preparations

COc1cc(CNC(=O)CCCC/C=C/C(C)C)ccc1O [Capsaicin, capsaicin]
Skin permeation ([2]; CMC gel with PCL25 vs identical capsaicin content in Glaxal base): enhanced skin permeation | Preparation of homogenous CMC gel ([3]; with PCL25): allowed | Preparation of homogenous CMC gel ([3]; without diblock copolymer): not possible to prepare homogenous CMC gel preparations | Solubility ([5]; control, no diblock copolymer): 10 µg/mL (≈ 32.7 µM) | Solubility [5, 21]: 506 µg/mL (≈ 1660 µM)

COc1cc(/C=C/C(=O)CC(=O)/C=C/c2ccc(O)c(OC)c2)ccc1O [Curcumin, curcumin]
Skin permeation [2, 7]: enhanced skin permeation | Curcumin release rate from PVA film ([6]; DBC3333 20% w/w to PVA vs no diblock): much faster | Curcumin released from PVA film ([6]; DBC3333 20% w/w to PVA): all drug released | Yellow colour in dish (observational solubilization) ([6]; diblock containing film vs no diblock film): markedly stronger | Curcumin released from PVA film ([6]; no diblock copolymer, room temperature): 6% | Solubility ([5]; control, no diblock copolymer): < 1 µg/mL | Solubility [5, 21]: 1000 µg/mL (≈ 2710 µM)

CC(=O)O[C@H]1C(=O)[C@@]2(C)[C@H]([C@H](OC(=O)c3ccccc3)[C@]3(O)C[C@H](OC(=O)[C@H](O)[C@@H](NC(=O)c4ccccc4)c4ccccc4)C(C)=C1C3(C)C)[C@]1(OC(C)=O)CO[C@@H]1C[C@@H]2O [Paclitaxel, paclitaxel]
Solubility ([5]; control, no diblock copolymer): 2 µg/mL (≈ 2.34 µM) | Solubility [5, 21]: 488 µg/mL (≈ 571 µM)

CCCCCc1cc(O)c2c(c1)OC(C)(C)[C@@H]1CCC(C)=C[C@@H]21 [THC, tetrahydrocannabinol]
Water solubility [1]: ~1 µg/mL | Skin permeation [2, 7]: enhanced skin permeation | Aqueous solubility [4, 22]: Insol. | Aqueous solubility [4, 23]: Insol. | Aqueous solubility [4, 24]: Insol. | Aqueous solubility [4, 25]: Insol. | Aqueous solubility [4, 26]: Insol. | Aqueous solubility [4, 10]: Insol. | Aqueous solubility ([4]; control, no diblock copolymer, drug 2000 μg/mL): Insol. | Solubility [4, 11]: Insol. | Solubility ([4]; diblock 0 mg/ml, drug 1 mg/ml): Insol. | Solubility [4, 12]: soluble | Solubility [4, 13]: soluble | Solubility [4, 14]: soluble | Solubility [4, 15]: Soluble | Aqueous solubility [4, 27]: Soluble | Aqueous solubility [4, 28]: Soluble | Aqueous solubility [4, 29]: Partially | Aqueous solubility [4, 30]: Insol. | Aqueous solubility [4, 31]: Insol. | Aqueous solubility ([4]; with DBC3333 50 mg/mL, drug 500 μg/mL): Soluble | Aqueous solubility [4, 18]: Soluble | Aqueous solubility [4, 19]: Soluble | Aqueous solubility [4, 20]: Partially | Aqueous solubility ([4]; with DBC3333 50 mg/mL, drug 4000 μg/mL): Insol.

CCCCCc1cc2c(c(O)c1C(=O)O)[C@@H]1C=C(C)CC[C@H]1C(C)(C)O2 [THCA, tetrahydrocannabinolic acid]
Skin permeation [2, 7]: enhanced skin permeation | Aqueous solubility [4, 22]: Soluble | Aqueous solubility [4, 23]: Insol. | Aqueous solubility [4, 24]: Insol. | Aqueous solubility [4, 25]: Insol. | Aqueous solubility [4, 26]: Insol. | Aqueous solubility [4, 10]: Insol. | Solubility [4, 11]: Insol. | Solubility ([4]; diblock 0 mg/ml, drug 1 mg/ml): Insol. | Solubility [4, 12]: soluble | Solubility [4, 13]: soluble | Solubility [4, 14]: soluble | Solubility [4, 15]: Soluble | Aqueous solubility [4, 27]: Soluble | Aqueous solubility [4, 28]: Soluble | Aqueous solubility [4, 29]: Soluble | Aqueous solubility [4, 30]: Partially | Aqueous solubility [4, 31]: Insol.

CC(=O)Nc1ccc(O)cc1 [acetaminophen]
Participant's description of efficacy/pain (osteoarthritis; Case 1): little to no pain relief or prevention of pain during or after exercise

CC(=O)O[C@@]12CO[C@@H]1C[C@H](O)[C@@]1(C)C(=O)[C@H](O)C3=C(C)[C@@H](OC(=O)[C@H](O)[C@@H](NC(=O)OC(C)(C)C)c4ccccc4)C[C@@](O)([C@@H](OC(=O)c4ccccc4)[C@H]21)C3(C)C [docetaxel]
Skin permeation [2, 7]: enhanced skin permeation | Preparation of homogenous CMC gel ([3]; with DBC3333): allowed | Preparation of homogenous CMC gel ([3]; without diblock copolymer): not possible to prepare homogenous CMC gel preparations

CC(C)(C)NC(=O)[C@H]1CC[C@H]2[C@@H]3CC[C@H]4NC(=O)C=C[C@]4(C)[C@H]3CC[C@]12C [finasteride]
Skin permeation [2, 7]: enhanced skin permeation | Preparation of homogenous CMC gel ([3]; with DBC3333): allowed | Preparation of homogenous CMC gel ([3]; without diblock copolymer): not possible to prepare homogenous CMC gel preparations | Aqueous solubility [4, 8]: Insol. | Aqueous solubility [4, 9]: Insol. | Aqueous solubility [4, 10]: Insol. | Aqueous solubility [4, 16]: Soluble | Aqueous solubility [4, 17]: Partially | Aqueous solubility [4, 18]: Insol. | Aqueous solubility [4, 19]: Insol. | Aqueous solubility [4, 20]: Insol.

CC(C)Cc1ccc(C(C)C(=O)O)cc1 (centres unmarked) [ibuprofen]
Participant's description of efficacy (rheumatoid arthritis; Case 4): mildly effective | VAS pain level after ibuprofen 400 mg (rheumatoid arthritis; Case 4, history, from 4): 3 | VAS pain level after as-needed medication (osteoarthritis; Case 1, history, used when pain level reaches 4): 3
